Laboratory results published in patent publication US11584741B2, “Crystalline forms of 4-(5-(4,7-dimethylbenzofuran-2-yl)-1,2,4-oxadiazol-3-yl)benzoic acid and processes for their preparation” (King's College London, priority 2016, dated 2023).
Values after ≈ are worked out from the molar mass of the structure shown. “Also recorded” adds a separate entry of the source. One block for each compound: values may come before it.

Key:
[1] = Solubility studies, shake-flask method in 15 solvents; type: physicochemical; conditions: for solubility at 24 h: 20° C.
Protocol: The solubility of BHBA-001 (characterised by XRPD as Form 1) was determined in 15 solvents to study the initial polymorphic behaviour. A shake-flask method was applied in which solid was added stepwise (e.g., 10 mg at a time) to a known amount of solvent (e.g., 3 mL). The solubility was confirmed visually. After the addition, the suspension/solution was held for 24 hours at 20° C. in order to check for slow dissolution or recrystallization. If the solid was not completely dissolved, the suspension was heated to 50° C. to encourage dissolution. The solvent was then removed by evaporation, in some cases, with the help of anti-solvent. The resulting solid was analysed using XRPD.

[2] = target: T1, RARβ (Homo sapiens, UniProt P10826); assay: Transcriptional transactivation assay, gal4-RAR fusion receptor / luciferase reporter in COS-7 cells; type: cell-based; conditions: Table 21
T1 construct: expressed in transfected cells; host or cells: COS-7
T1 sequence (P10826 183-417 limits assumed): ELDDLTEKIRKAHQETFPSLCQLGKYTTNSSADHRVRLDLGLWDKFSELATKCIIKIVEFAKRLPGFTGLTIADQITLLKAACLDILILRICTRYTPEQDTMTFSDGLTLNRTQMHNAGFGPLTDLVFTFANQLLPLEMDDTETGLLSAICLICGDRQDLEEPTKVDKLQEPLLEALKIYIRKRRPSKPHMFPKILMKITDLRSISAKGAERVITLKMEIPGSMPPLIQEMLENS
Protocol: (§1) Transcriptional transactivation assays were performed with gal4 fusion receptor constructs, created using each of the RAR ligand binding domains of either mouse or human, co-transfected with the pFR-luc (Stratagene) reporter construct in COS-7 cells.
(§2) Briefly, on day 1, 96 well plates were seeded with 8000 cells per well then left to recover overnight. On day 2, the cells were co-transfected with 100 ng of reporter plasmid and 10 ng of the appropriate receptor plasmid per well using lipofectamine (Invitrogen). On day 3, the lipofectamine containing media was replaced by a DMEM without phenol red, followed by the addition of test compound dissolved in 1 μL of DMSO to each well's 100 μL total volume. Finally, on day 4, the cells were lysed and their luciferase substrate was provided by the BrightGlo™ reagent (Promega), the plates were then read on the MicroBeta TrLux™ (Perkin Elmer).
(§3) Data for test compounds are quoted as EC50 values. Where replicate data has been generated, the data are quoted as the mean EC50 from the separate experiments.

[3] = target: T2, RARβ (Mus musculus, UniProt P22605); assay: as above; type: cell-based
T2 construct: expressed in transfected cells; host or cells: COS-7
T2 sequence (P22605 210-444 limits assumed): T1 sequence (P10826 183-417 limits assumed)
Protocol: as §1, §2, §3

[4] = system: rats with severed and re-implanted sensory roots at the level of the left forelimb; assay: Sensory roots of four DRG severed and re-implanted into the spinal cord, sticky tape tests; type: in vivo; conditions: rat, after 5 weeks, 1 mg/kg three times a week
Protocol: In another example of nerve injury, the four sensory roots from each of four DRG at the level of the left forelimb were severed and re-implanted into the spinal cord.
The results are illustrated in Borthwick et al., 2016. […] Rats were treated with 1 mg/kg of the test compound or vehicle two days after lesion, and then three times a week for the period of the experiment. Error bars show SEM. ***P<0.001, students t test, n=3-4 rats for each treatment group. At weeks 3, 4, and 5, there was significant difference between the rats treated with RARβ agonist as compared to rats treated with other retinoid agonists and vehicle.

[5] = Dynamic vapour sorption (DVS) hygroscopicity; type: physicochemical; conditions: from DVS, 0% to 95% RH
Protocol: The DVS studies were performed using a Surface Measurement Systems Ltd. DVS-1 No Video (Equipment #2126).
The sample was weighed in a glass pan, typically 20-30 mg, and equilibrated at 0% RH. After the material had dried, the relative humidity (RH) was increased with 10% per step for 1 hour per increment, ending at 95% RH.
The software used for data collection was DVSWn v3.01 No Video. Data analysis was performed using DVS Standard Analysis Suite v6.3.0 (Standard).
To determine the hygroscopicity of Form 1, a DVS plot was measured at 25° C. for a double sorption-desorption cycle. The total mass uptake was 8.7% w/w between 0% and 95% RH, which characterised Form 1 as a hygroscopic form. The uptake was reversible and reproducible.
To determine the hygroscopicity of Form 4, a DVS plot was measured at 25° C. for a double sorption-desorption cycle. The total mass uptake was 0.1% between 0% and 95% RH, which characterises Form 4 as a non-hygroscopic form.

[6] = Stability studies on storage (appearance, drug content, water content, drug-related impurities); type: physicochemical
Protocol: Stability studies were performed as follows. Samples were packaged in double low density polyethylene bags, sealed with plastic ties, and placed in high-density polyethylene (HDPE) drums.
The samples were tested periodically for visual appearance, drug content (by HPLC), water content (by Karl Fischer titration), and drug-related impurities (by HPLC).
Drug content, corrected to a water and solvent free basis, is calculated from the following equation: Content (%)=100−(water+solvents+residue on ignition+related impurities).
Drug-related impurities were determined using a reverse-phase gradient HPLC method with UV detection at 254 nm, using a 150 mm×4.6 mm, 3 μm Waters Atlantis T3 column, with the following parameters: […]

[7] = system: cerebellar neurons; assay: Neurite outgrowth assay, cerebellar neurons in the presence of myelin / MAG; type: cell-based, rat; conditions: for Effect on RARβ agonist (CD2019) mediated neurite outgrowth: cerebellar neurons cultured with CD2019 plus inhibitor; for Effect on RARβ agonist (CD2019) mediated neurite outgrowth in the presence of MAG: cerebellar neurons
Protocol: Cerebellar neurons isolated from post-natal day 3 rat pups were cultured over monolayers of parental 3T3 cells in control media, or media supplemented with a recombinant MAG-Fc chimera (R&D Systems) used at a final concentration of 20 μg/mL MAG-Fc. The monolayers were established for 24 hours prior to addition of the neurons and the co-cultures were maintained for approximately 21 hours. Following careful fixation with 4% paraformaldehyde, the neurons were immuno-stained with a GAP-43 antibody (from Graham Wilkin, Imperial College), dilution of 1:500, and the mean length of the longest neurite per cell was measured for approximately 120-150 neurons as previously described (see, e.g., Williams et al., 2005). DRG and cortical explants were obtained from adult rats, they were cultured in cellogen as previously described (see, e.g., Corcoran and Maden, 1999). Three explants per treatment were used. Neurite outgrowth was assessed 3 days later by immunohistochemistry with NF200 (Sigma, dilution of 1:200). The average lengths of the neurites were measured using image pro plus software. Media consisted of DMEM-F12 (Invitrogen) containing N2 (Invitrogen) supplemented with glucose (33 mM) and glutamine (2 mM).

[8] = after 24 months at 25° C./60% RH and 6 months at 40° C./75% RH

SMILES: Cc1ccc(C)c2oc(-c3nc(-c4ccc(C(=O)O)cc4)no3)cc12 [Form 1, 4-(5-(4,7-dimethylbenzofuran-2-yl)-1,2,4-oxadiazol-3-yl)benzoic acid]
Hygroscopicity characterisation [5]: hygroscopic

SMILES: CCCCCCOC(=O)[C@]1(O)C[C@@H]2O[C@@]1(C)n1c3ccccc3c3c4c(c5c6ccccc6n2c5c31)C(=O)NC4 [KT5720]
Effect on RARβ agonist (CD2019) mediated neurite outgrowth [7]: little or no effect | Effect on RARβ agonist (CD2019) mediated neurite outgrowth in the presence of MAG [7]: does not affect

SMILES: O=c1cc(N2CCOCC2)oc2c(-c3ccccc3)cccc12 [LY295002]
Effect on RARβ agonist (CD2019) mediated neurite outgrowth [7]: severely impeded | Effect on RARβ agonist (CD2019) mediated neurite outgrowth in the presence of MAG [7]: prevents

Now from value to compound, other results behind:

Solubility (in words) ([1]; in most solvents of the 15 tested): only poorly soluble | solubility at 24 h ([1]; organic solvent or mixture, thermodynamic from solid, 1-propanol, starting solid Form 1): < 3000 µg/mL | solubility at 24 h ([1]; organic solvent or mixture, thermodynamic from solid, 2-methyltetrahydrofuran, starting solid Form 1): 5000 to 10000 µg/mL (≈ 15 to 29.9 mM) | solubility at 24 h ([1]; organic solvent or mixture, thermodynamic from solid, 2-propanol, starting solid Form 1): < 3000 µg/mL | solubility at 24 h ([1]; organic solvent or mixture, thermodynamic from solid, acetic acid, starting solid Form 1): < 4000 µg/mL | solubility ([1]; organic solvent or mixture, thermodynamic from solid, acetone, at 50° C. (footnote), starting solid Form 1): < 3000 µg/mL | solubility at 24 h ([1]; organic solvent or mixture, thermodynamic from solid, acetonitrile, starting solid Form 1): < 4000 µg/mL | solubility at 24 h ([1]; organic solvent or mixture, thermodynamic from solid, dichloromethane, starting solid Form 1): < 3000 µg/mL | solubility at 24 h ([1]; organic solvent or mixture, thermodynamic from solid, ethanol, starting solid Form 1): < 4000 µg/mL | solubility at 24 h ([1]; organic solvent or mixture, thermodynamic from solid, ethyl acetate, starting solid Form 1): < 4000 µg/mL | solubility at 24 h ([1]; organic solvent or mixture, thermodynamic from solid, isopropyl acetate, starting solid Form 1): 4000 µg/mL (≈ 12 mM) | solubility at 24 h ([1]; organic solvent or mixture, thermodynamic from solid, methyl tert-butyl ether, starting solid Form 1): < 3000 µg/mL | solubility at 24 h ([1]; organic solvent or mixture, thermodynamic from solid, n-heptane, starting solid Form 1): < 3000 µg/mL | solubility at 24 h ([1]; organic solvent or mixture, thermodynamic from solid, tetrahydrofuran (THF), starting solid Form 1): 9000 to 30000 µg/mL (≈ 26.9 to 89.7 mM) | solubility at 24 h ([1]; organic solvent or mixture, thermodynamic from solid, toluene, starting solid Form 1): < 3000 µg/mL | solubility at 24 h ([1]; thermodynamic from solid, water, starting solid Form 1): < 3000 µg/mL | Selectivity over RARα [2]: 23-fold | Selectivity over RARγ [2]: 5-fold | Selectivity over RARγ ([3]; Mouse, Table 21): 6-fold | EC50 ([3]; Table 20, mean of three or more determinations, species not given, value equals mouse value of Table 21): < 2 nM
SMILES: Cc1ccc(C)c2oc(-c3nc(-c4ccc(C(=O)O)cc4)no3)cc12 [BHBA-001, 4-(5-(4,7-dimethylbenzofuran-2-yl)-1,2,4-oxadiazol-3-yl)benzoic acid]
Behavioural test (sticky tape) [4]: performed as well as non-lesioned animals

Storage time shown to be stable ([6]; 25° C./60% RH): at least 24 months | Drug Content ([6]; 25° C./60% RH, 3 months): 98.7 % w/w | Drug-Related Impurities ([6]; 25° C./60% RH, 3 months): 0.06 % area | Visual Appearance ([6]; 25° C./60% RH, 3 months): As initial | Water content ([6]; 25° C./60% RH, 3 months): <0.1 % w/w | Drug Content ([6]; 25° C./60% RH, 6 months): 100.2 % w/w | Drug-Related Impurities ([6]; 25° C./60% RH, 6 months): 0.05 % area | Visual Appearance ([6]; 25° C./60% RH, 6 months): As initial | Water content ([6]; 25° C./60% RH, 6 months): <0.1 % w/w | Drug Content ([6]; 25° C./60% RH, 9 months): 99.2 % w/w | Drug-Related Impurities ([6]; 25° C./60% RH, 9 months): 0.03 % area | Visual Appearance ([6]; 25° C./60% RH, 9 months): As initial | Water content ([6]; 25° C./60% RH, 9 months): <0.1 % w/w | Drug Content ([6]; 25° C./60% RH, 12 months): 100.4 % w/w | Drug-Related Impurities ([6]; 25° C./60% RH, 12 months): 0.03 % area | Visual Appearance ([6]; 25° C./60% RH, 12 months): Off-white | Water content ([6]; 25° C./60% RH, 12 months): <0.1 % w/w | Drug Content ([6]; 25° C./60% RH, 18 months): 101.1 % w/w | Drug-Related Impurities ([6]; 25° C./60% RH, 18 months): 0.07 % area | Visual Appearance ([6]; 25° C./60% RH, 18 months): Off-white | Water content ([6]; 25° C./60% RH, 18 months): <0.1 % w/w | Drug Content ([6]; 25° C./60% RH, 24 months): 101.5 % w/w | Drug-Related Impurities ([6]; 25° C./60% RH, 24 months): <0.03 % area | Visual Appearance ([6]; 25° C./60% RH, 24 months): As initial | Water content ([6]; 25° C./60% RH, 24 months): <0.1 % w/w | Storage time shown to be stable ([6]; 40° C./75% RH): ≥ 6 months | Drug Content ([6]; 40° C./75% RH, 3 months): 98.3 % w/w | Drug-Related Impurities ([6]; 40° C./75% RH, 3 months): 0.10 % area | Visual Appearance ([6]; 40° C./75% RH, 3 months): As initial | Water content ([6]; 40° C./75% RH, 3 months): <0.1 % w/w | Drug Content ([6]; 40° C./75% RH, 6 months): 99.8 % w/w | Drug-Related Impurities ([6]; 40° C./75% RH, 6 months): 0.05 % area | Visual Appearance ([6]; 40° C./75% RH, 6 months): As initial | Water content ([6]; 40° C./75% RH, 6 months): <0.1 % w/w | Drug Content ([6]; Initial, 0 months): 100.1 % w/w | Drug-Related Impurities ([6]; Initial, 0 months): 0.03 % area | Visual Appearance ([6]; Initial, 0 months): White | Water content ([6]; Initial, 0 months): <0.1 % w/w | Change of appearance on storage [6, 8]: essentially unchanged | Change of drug content on storage [6, 8]: essentially unchanged | Change of drug-related impurity levels on storage [6, 8]: essentially unchanged | Change of water content on storage [6, 8]: essentially unchanged | Stability at ambient conditions (in words) ([6]; ambient conditions): stable for many months
SMILES: Cc1ccc(C)c2oc(-c3nc(-c4ccc(C(=O)O)cc4)no3)cc12 [Form 4, 4-(5-(4,7-dimethylbenzofuran-2-yl)-1,2,4-oxadiazol-3-yl)benzoic acid]
Hygroscopicity characterisation [5]: low hygroscopicity; also recorded: non-hygroscopic
